From patent US12157746B2, “Tetrahydro-1H-pyrazino[2,1-a]isoindolylquinoline compounds for the treatment of autoimmune disease” (F. HOFFMANN-LA ROCHE AG, priority 2018, dated 2024)
Converted amounts (≈) assume the structure as drawn.

Experiments:
hERG K+ channel = target: T1, hERG K+ channel (Homo sapiens, UniProt Q12809); experiment: hERG channel inhibition assay; format: cell-based; conditions: patch-clamp (voltage-clamp, whole-cell); for IC50: CHO cells expressing hERG; for IC20: human, CHO cells stably expressing hERG
T1 construct: expressed in transfected cells; host or cells: CHO (Chinese hamster ovary) cells, CHOhERG
Method: hERG Channel Inhibition Assay
The hERG K^+ channels were cloned in humans and stably expressed in a CHO (Chinese hamster ovary) cell line. CHOhERG cells were used for patch-clamp (voltage-clamp, whole-cell) experiments. Cells were stimulated by a voltage pattern to activate hERG channels and conduct IKhERG currents (rapid delayed outward rectifier potassium current of the hERG channel). After the cells were stabilized for a few minutes, the amplitude and kinetics of IKhERG were recorded at a stimulation frequency of 0.1 Hz (6 bpm). Thereafter, the test compound was added to the preparation at increasing concentrations. For each concentration, an attempt was made to reach a steady-state effect, usually, this was achieved within 3-10 min at which time the next highest concentration was applied. The amplitude and kinetics of IKhERG are recorded in each concentration of the drug which were compared to the control values (taken as 100%). (references: Redfem W S, Carlsson L, Davis A S, Lynch W G, MacKenzie I, Palethorpe S, Siegl P K, Strang I, Sullivan A T, Wallis R, Camm A J, Hammond T G. 2003; Relationships between preclinical cardiac electrophysiology, clinical QT interval prolongation and torsade de pointes for a broad range of drugs: evidence for a provisional safety margin in drug development. Cardiovasc. Res. 58:32-45, Sanguinetti M C, Tristani-Firouzi M. 2006; hERG potassium channels and cardiac arrhythmia. Nature 440:463-469, Webster R, Leishman D, Walker D. 2002; Towards a drug concentration effect relationship for QT prolongation and torsades de pointes. Curr. Opin. Drug Discov. Devel. 5:116-26).

[1] = tested on: Balb/c 3T3 mouse fibroblasts; experiment: 3T3 in vitro phototoxicity assay; format: cell-based; conditions: Neutral Red uptake
Excerpt: 3T3 In Vitro Phototoxicity Assay
Phototoxicity is defined as a toxic response that is elicited after the first exposure of the skin to certain chemicals and subsequent exposure to light, or that is induced similarly by skin irradiation after systemic administration of a chemical substance. The assay used in this study is designed to detect the phototoxic potential of a chemical by using a simple in vitro cytotoxicity assay with Balb/c 3T3 mouse fibroblasts. The principle of this test is a comparison of the cytotoxicity of a chemical when tested with and without exposure to a non-toxic dose of UVA-light. Cytotoxicity is expressed as a dose dependent reduction of the growth rate of cells as determined by uptake of the vital dye Neutral Red one day after treatment.
A small amount of substance was weighed and formulated freshly in DMSO just before the start of the exposure of the cells. This stock solution or appropriate dilutions with DMSO were added to the cell suspensions to obtain the required final concentrations. All solutions were generally prepared in Eppendorf caps and discarded after use.
For this study the Neutral Red uptake (NRU) assay of Borenfreund and Puemer (Borenfreund, E, Puemer J A. Toxicity determined in vitro by morphological alterations and Neutral Red absorption. Toxicology Lett. 1985; 24:119-124) modified according to INVITTOX protocol No 78 (ERGATT/FRAME data bank of in vitro techniques in toxicology. INVITTOX PROTOCOL No 78. 3T3 NRU Phototoxicity Assay. March 1994) has been adapted to examine a possible phototoxic potential of the test item. This assay is based on the active uptake of the Neutral Red dye into the lysosomes of cultured murine fibroblasts. Because lysosomal membranes are known to be a site of action of many phototoxic compounds, this assay can provide a measure of potential for phototoxic injury.
A murine fibroblasts clone A 31 (ATCC no. CCL 163—passage No. 108) were cultured in 175 cm2 tissue culture grade flasks, containing sDMEM (Dulbecco's Minimal Essential Medium, supplemented with 10% fetal calf serum, 2 mM L-glutamine, 100 units/ml Penicillin and 100 μg/ml streptomycin) at 37° C. in a humidified atmosphere of 6% C02. Before cells approach confluence they were removed from flasks by trypsinisation. Prior to use in an assay, the cells were transferred to 96-well microtiter plates at a concentration of 1×10^4 cells/well in 100 μl volumes of sDMEM and allowed to attach for 24 h.
For incubation with murine fibroblasts, the test item was diluted in PBS/3% DMSO (detailed concentrations see in results).
Culture medium (Dulbecco's Modified Eagle Medium (DMEM), GlutaMAX (Gibco Ref 21885-025), 10% Fetal Bovine Serum (FBS) (Gibco Ref 10270-106), 100 IU/ml Penicillin and 100 μg/ml Streptomycin (Gibco Ref 15140-122)) was removed from the wells and murine fibroblasts were washed with PBS. Afterwards 100 μL of PBS/3% DMSO containing the test item was added and target cells were incubated for 1 h at 37° C. with 6% CO2.
For each test item the microtiter plates were prepared according to Table 4. “UVA plates” were exposed to approx. 5 J/cm2 UVA light, the “Dark plates” were kept in the dark and served as cytotoxicity control. Plates with chlorpromazine hydrochloride served as positive control. UV flux was measured with a UV-meter (Dr. Gröbel RM21).
Following UV irradiation, the test item was removed from the wells (one washing step with PBS) and replaced with sDMEM. Target cells were then incubated overnight at 37° C. in 6% CO2.
Each plate contained wells with cells and solvent but without test item which were either not incubated with Neutral Red solution (0% standard—S1) or were stained with Neutral Red (100% standard—S2) for calculation of the standard cell viability curve. Wells labeled with U01-U08 contained the different test item concentrations.
After the incubation the wells to be assayed were filled with 100 μL of the sDMEM containing Neutral Red. […]

T1 sequence (Q12809 whole entry): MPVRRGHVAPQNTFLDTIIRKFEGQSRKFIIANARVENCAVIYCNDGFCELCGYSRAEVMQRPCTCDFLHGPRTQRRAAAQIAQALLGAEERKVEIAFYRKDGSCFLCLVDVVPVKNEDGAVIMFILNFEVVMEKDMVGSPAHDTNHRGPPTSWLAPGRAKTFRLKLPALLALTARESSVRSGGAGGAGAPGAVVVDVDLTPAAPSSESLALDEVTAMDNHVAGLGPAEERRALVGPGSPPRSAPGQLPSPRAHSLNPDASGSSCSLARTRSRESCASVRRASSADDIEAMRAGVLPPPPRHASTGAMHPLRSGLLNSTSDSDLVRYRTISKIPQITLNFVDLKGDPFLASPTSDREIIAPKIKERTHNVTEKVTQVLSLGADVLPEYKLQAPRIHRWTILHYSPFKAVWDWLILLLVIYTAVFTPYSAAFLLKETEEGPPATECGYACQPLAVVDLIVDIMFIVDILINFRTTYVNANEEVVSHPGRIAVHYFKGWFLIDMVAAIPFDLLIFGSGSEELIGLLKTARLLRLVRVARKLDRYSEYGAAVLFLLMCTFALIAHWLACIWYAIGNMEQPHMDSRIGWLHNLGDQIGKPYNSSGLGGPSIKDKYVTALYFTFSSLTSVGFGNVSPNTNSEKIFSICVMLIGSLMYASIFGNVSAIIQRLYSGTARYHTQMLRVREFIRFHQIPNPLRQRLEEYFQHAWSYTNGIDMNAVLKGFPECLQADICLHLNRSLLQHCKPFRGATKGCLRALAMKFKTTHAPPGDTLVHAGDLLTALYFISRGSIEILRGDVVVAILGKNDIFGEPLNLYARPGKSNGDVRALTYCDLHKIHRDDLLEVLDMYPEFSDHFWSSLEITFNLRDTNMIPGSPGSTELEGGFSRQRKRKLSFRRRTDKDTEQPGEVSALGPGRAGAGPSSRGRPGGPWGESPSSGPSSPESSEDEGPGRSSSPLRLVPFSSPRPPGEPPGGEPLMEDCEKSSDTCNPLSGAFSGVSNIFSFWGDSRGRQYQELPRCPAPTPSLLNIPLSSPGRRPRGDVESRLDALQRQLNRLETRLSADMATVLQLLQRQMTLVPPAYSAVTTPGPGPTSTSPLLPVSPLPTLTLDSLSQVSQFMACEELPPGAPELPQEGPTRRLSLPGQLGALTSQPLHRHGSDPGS

| Compound | IC50 (hERG K+ channel) [µM] | IC20 (hERG K+ channel) [µM] | Phototoxicity factor ([1]; Factor=IC50(−UV)/IC50(+UV), cut-off factor >5) | IC50 ([1]; Mus musculus, BALB/c3T3, light or radiation study, with approx. 5 J/cm2 UVA light) [mg/L] |
| --- | --- | --- | --- | --- |
| C[C@@H]1CN(c2ccc(C#N)c3ncccc23)C[C@@H]2c3ccc(NCC4COCCN4)cc3CN12 (stereo partly drawn) [Example 57, 5-[(4R,10bS)-4-methyl-8-(morpholin-3-ylmethylamino)-3,4,6,10b-tetrahydro-1H-pyrazino[2,1-a]isoindol-2-yl]quinoline-8-carbonitrile] | > 20 | > 10 | – | – |
| CO[C@H]1CNC[C@@H]1N(C)c1ccc2c(c1)CN1[C@H](C)CN(c3ccc(C#N)c4ncccc34)C[C@H]21 [Example 64, 5-[(4R,10bS)-8-[[(3S,4S)-4-methoxypyrrolidin-3-yl]-methyl-amino]-4-methyl-3,4,6,10b-tetrahydro-1H-pyrazino[2,1-a]isoindol-2-yl]quinoline-8-carbonitrile] | > 20 | 8.5 | – | – |
| C[C@@H]1CN(c2ccc(C#N)c3ncccc23)C[C@@H]2c3ccc(NCCN4CC[C@H](O)C4)cc3CN12 [Example 68, 5-[(4R,10bS)-8-[2-[(3S)-3-hydroxypyrrolidin-1-yl]ethylamino]-4-methyl-3,4,6,10b-tetrahydro-1H-pyrazino[2,1-a]isoindol-2-yl]quinoline-8-carbonitrile] | > 20 | 5.6 | – | – |
| [2H]c1ccc2c(N3C[C@@H](C)N4Cc5cc(N6CC7(CNCCO7)C6)ccc5[C@H]4C3)ccc(C#N)c2n1 [Example 90, 5-[(4R,10bS)-4-methyl-8-(5-oxa-2,8-diazaspiro[3.5]nonan-2-yl)-3,4,6,10b-tetrahydro-1H-pyrazino[2,1-a]isoindol-2-yl]-2-deuterio-quinoline-8-carbonitrile] | – | – | >2 | 50.6 (≈ 108 µM) |
| C[C@@H]1CN(c2ccc(C#N)c3ncccc23)C[C@@H]2c3ccc(N4C[C@H]5CNCCN5C4=O)cc3CN12 [Example 72, 5-[(4R,10bS)-8-[(8aR)-3-oxo-1,5,6,7,8,8a-hexahydroimidazo[1,5-a]pyrazin-2-yl]-4-methyl-3,4,6,10b-tetrahydro-1H-pyrazino[2,1-a]isoindol-2-yl]quinoline-8-carbonitrile] | > 20 | > 10 | – | – |
| C[C@H]1CN(c2ccc(C#N)c3ncccc23)C[C@H]2c3ccc(N4CCNCC4)cc3CN12 [Example 2, 5-[(4S,10bR)-4-methyl-8-piperazin-1-yl-3,4,6,10b-tetrahydro-1H-pyrazino[2,1-a]isoindol-2-yl]quinoline-8-carbonitrile] | > 20 | > 10 | – | – |
| C[C@@H]1CN(c2ccc(C#N)c3ncccc23)C[C@@H]2c3ccc(NC[C@H]4CNCCO4)cc3CN12 [Example 59, 5-[(4R,10bS)-4-methyl-8-[[(2R)-morpholin-2-yl]methylamino]-3,4,6,10b-tetrahydro-1H-pyrazino[2,1-a]isoindol-2-yl]quinoline-8-carbonitrile] | > 20 | > 10 | – | – |
| CO[C@@H]1CNC[C@@H]1Nc1ccc2c(c1)CN1[C@H](C)CN(c3ccc(C#N)c4ncccc34)C[C@H]21 [Example 60, 5-[(4R,10bS)-8-[[(3S,4R)-4-methoxypyrrolidin-3-yl]amino]-4-methyl-3,4,6,10b-tetrahydro-1H-pyrazino[2,1-a]isoindol-2-yl]quinoline-8-carbonitrile] | > 20 | > 10 | – | – |
